# In publication PMC8894198, “Biosynthetic Microcin J25 Exerts Strong Antibacterial, Anti-Inflammatory Activities, Low Cytotoxicity Without Increasing Drug-Resistance to Bacteria Target” (Frontiers in Immunology, 2022):
# Where a SMILES comes first, the peptide text is derived from it. Bridges are numbered along the chain shown (N, C = ends).
# Columns and labels:
# E. coli K88 [1] = tested on: E. coli K88
# Method: The resistance of MccJ25 to pepsin, trypsin and chymotrypsin was evaluated based on previous studies ([26]), with minor modifications. E. coli K88 cells were prepared (approximately 1 × 10^7 CFU/mL), and 1 mL of the bacterial suspension and MccJ25 were transferred into 9 mL of medium. For the control, MccJ25 was not added. LB agar inoculated with E. coli K88 cells (~10^5 viable cells/mL) was poured onto a plate containing an Oxford cup to form individual wells. Then, 2 and 4 h MccJ25 (1 × MIC) previously subjected to different treatments were added to the wells. The agar overlay was incubated overnight at 37°C, and the diameter of the growth inhibition zone was measured.
# The simulated gastric fluid (SGF) and simulated intestinal fluid (SIF) were mainly based on the relevant contents of the Chinese Pharmacopoeia as described previously ([26]). SGF was configurated with 10 mg/mL pepsin, 0.03 M NaCl was used to blend the pH to 1.5, while SIF was configured with 10 mg/mL trypsin, 0.05 M KH2PO4 was used to blended pH as 7. SGF and SIF were then measured separately, and the antimicrobial activity of MccJ25 in serum was determined. E. coli K88 cells were grown in MHB (Difco Laboratories, Detroit, MI, USA). In short, 1 mL of the bacterial suspension and MccJ25 were transferred into 9 mL of medium. The control group was as follows: no MccJ25 was added to it. E. coli K88 cells with a live cell count maintained at approximately 10^5 cells per milliliter were inoculated on LB agar, which was then poured into plates equipped with Oxford cups, thus forming wells. Then, MccJ25 (1 × MIC) previously treated with SGF, SIF and serum for 2, 4, and 6 h was added to these wells. One of the agar substances covering the wells needs to be incubated overnight at 37°C, and finally, the size of its growth inhibition area, i.e., the diameter, needs to be determined.
# [2] = LPS neutralization, chromogenic limulus amebocyte lysate assay; format: biochemical, E. coli; conditions: 8 μg/mL MccJ25, LPS 1 EU/mL, 37°C, A405
# Method: The neutralizing impacts of MccJ25 on LPS were assessed according to a color-emitting […] assay. Levels of E. coli LPS (1 EU/mL) were prepared and combined with various concentrations of MccJ25 (1 to 128 µg/mL) and inoculated in the wells of sterile microtiter plates at 37°C. Then, 50 μL of the above mixture was extracted, the same volume of […] reagent was added, and the mixture was incubated for 10 min at 37°C. […] The reaction was finished by adding 25% acetic acid, and finally, its absorbance value at 405 nm was measured.
# E. coli K88 [3] = experiment: Electron microscopy (SEM, TEM) of treated bacteria; format: cell-based
# Method: Scanning electron microscope (SEM) was performed to test the morphological features of E. coli K88 cells by comparing cells incubated in the absence (control) or presence of MccJ25. For SEM sample preparation, the standard protocol was used based on our previous report ([26]) with slight modifications. Overnight E. coli K88 cultures were inoculated and grown to the mid-logarithmic phase in the fresh LB medium at 37°C for 2 h, then harvested by centrifugation, washed twice with PBS and re-suspended in the same buffer. Approximately 2 × 10^7 cells were incubated with 1 and 2 × MIC MccJ25 at 37°C for 1 h. Thereafter, cells were pooled and centrifuged at 5000 g for 5 min. Bacterial pellets were washed 3 times with PBS and centrifuged after each wash. Cells were fixed with 2.5% glutaraldehyde at 4°C overnight and washed 2 times with PBS. They were then harvested, post-fixed with 1% osmium tetroxide for 1 h and dehydrated for 15 min each in a graded ethanol series (50, 70, 80, 90, 95 and 100%). Cells were then treated with absolute acetone for 20 min, a mixture of alcohol and iso-amyl acetate (1:1) for 30 min and pure iso-amyl acetate for 1 h. Lastly, samples were dehydrated in a critical point dryer (Model HCP-2, Hitachi, Chiyoda-ku, Tokyo, Japan) with liquid CO2. The dehydrated samples were coated with gold-palladium and observed by SEM (Model EVO MA10 XVP, Carl Zeiss, Jena, GmbH, Germany). […]
structure (smiles),measurement,setting,value
"CC[C@H](C)[C@H](NC(=O)CNC(=O)[C@@H](NC(=O)[C@H](Cc1ccccc1)NC(=O)[C@H](Cc1ccc(O)cc1)NC(=O)[C@@H]1CCC(=O)NCC(=O)NCC(=O)N[C@@H](C)C(=O)NCC(=O)N[C@@H](Cc2c[nH]cn2)C(=O)N[C@@H](C(C)C)C(=O)N2CCC[C@H]2C(=O)N1)C(C)C)C(=O)NCC(=O)N[C@H](C(=O)N1CCC[C@H]1C(=O)N[C@H](C(=O)N[C@@H](CO)C(=O)N[C@@H](Cc1ccccc1)C(=O)N[C@@H](Cc1ccc(O)cc1)C(=O)NCC(=O)O)[C@@H](C)CC)[C@@H](C)O [MccJ25, microcin J25] (GGAGHVPEYFVGIGTPISFYG-OH; lactam N-8 (inferred); C-terminus assumed)",growth inhibition zone after heat treatment,"E. coli K88 [1]; MccJ25 1 × MIC pre-treated at 121°C for 20 minutes, Oxford cup, LB agar, overnight 37°C, n = 6",greater than 22 mm
same,growth inhibition zone after pH treatment,"E. coli K88 [1]; MccJ25 1 × MIC pre-treated at pH 2.0 to 9.0 for 2 h, Oxford cup, LB agar, overnight 37°C, n = 6",greater than 22 mm
same,"antimicrobial activity after SIF, SGF or serum treatment","E. coli K88 [1]; MccJ25 1 × MIC pre-treated with SGF, SIF and serum for 2, 4 and 6 h, inhibition zone",essentially the same as that of MccJ25 subjected to a single treatment
same,antimicrobial activity after protease challenge,"E. coli K88 [1]; MccJ25 1 × MIC pre-treated with pepsin, trypsin or chymotrypsin for 2 and 4 h, inhibition zone",retained
same,LPS neutralization,[2],92.59%
same,cell morphology by SEM,"E. coli K88 [3]; 1 × and 2 × MIC, 60 min",filamentous and elongated
same,cell membranes by TEM,"E. coli K88 [3]; 1 ×, 2 × and 4 × MIC, 0.5 and 1 h",disrupted
